The values below come from paper PMC6148246, “HS-1371, a novel kinase inhibitor of RIP3-mediated necroptosis” (Experimental & Molecular Medicine, 2018).

Each structure is given as a SMILES string.

One assay deals with p-MLKL. In words: Phospho-MLKL immunofluorescence in HT-29 cells. The class given is cell-based, human. As to conditions: HT-29, immunofluorescence. The protocol:
HT-29 cells were fixed in 4% paraformaldehyde for 10 min. To stain phospho-MLKL, cells were permeabilized with 0.25% Triton X-100 for 10 min. After incubation in a blocking buffer (10% fetal bovine serum in DPBS) for 30 min, the primary antibody to phospho-MLKL was incubated overnight at 4 °C, and FITC-conjugated secondary antibody (goat anti-rabbit IgG, 1:250, dilution, Invitrogen) was incubated for 1 h at room temperature. A mounting medium containing DAPI (VECTASHIELD, Cat No. 94010, Vector Laboratories) was used for counterstaining. Representative images were taken by confocal microscope.
HT-29 cells were pretreated with four tested inhibitors for 2 h and then treated with TSZ (6 h for immunoblotting, 24 h for cell death assay). Cell lysates were analyzed by immunoblotting, and cell viability was analyzed by MTT assay or phase-contrast microscopy. The results are presented as the means ± SEM. *P < 0.05, **P < 0.01, ***P < 0.001. b Protection of necroptosis by HS-1371 treatment is similar with dabrafenib, which abolished downstream events. HT-29 cells were pretreated with various necroptosis inhibitors and HS-1371 before TSZ treatment. Cell lysates were analyzed by immunoblotting, and cell viability was analyzed by MTT assay (left panel). Cells were stained with phospho-MLKL antibody and analyzed by confocal fluorescence microscopy (middle panel), and cell death was further analyzed by FACS analysis after PI staining (right panel). c HS-1371 protects cells from TNF-induced necroptosis in a dose-dependent manner. HT-29 cells were pretreated with indicated concentrations of HS-1371 and then treated with TSZ (6 h for immunoblotting, 24 h for cell death assay). Cell lysates were analyzed by immunoblotting, and cell viability was analyzed by MTT assay or phase-contrast microscopy. The results are presented as means ± SEM. *P < 0.05, **P < 0.01, ***P < 0.001 TEXT PRINTED IN THE PICTURE: (b) TSZ: 20.7 | (b) TSZ + Nec-1: 5.8 | (b) TSZ + DAB: 5.5 | (b) TSZ + 1371: 6.8 DOUBTS OF THE COPYIST ABOUT THIS PICTURE: Panel b, flow cytometry plots: the red gate numbers are printed without a measure or unit, so none is given / Panel b: the 'Untreated' control plot prints 7.7; left out because it is not a substance

For a further assay, the system named is NF-κB pathway. In words: TNF- or LPS-induced NF-κB signaling (immunoblot). The class given is cell-based. The protocol: Supplementary Figure 1. Identification of HS-1371 as a novel RIP3 kinase inhibitor.
Detailed interaction patterns in the region surrounded by DFG motif and αC helix of RIP3.
Hydrogen bonds are indicated with dotted lines.
Supplementary Figure 2. The effect of HS-1371 was compared with GSK’872.
(a) Overexpression of RIP3 could induce S227 phosphorylation without stimuli. HEK293T cells were transiently transfected with Flag-hRIP3, and cells were treated with or without DAB for incubation periods. After cells were harvested, cell lysates were analyzed by […]
kinase inhibitor. HT-29 cells were treated with HS -1371 or GSK’872 indicated concentrations for 9 h, and cell lysates were analyzed by immunoblotting.
(c) Cytotoxicity of HS-1371 was compared with GSK’872. HT-29 cells were treated with 2 kinase inhibitors for 24 h and cell viability was analyzed by MTT assay.
(d) Inhibition of MLKL phosphorylation by HS-1371 was compared with other two RIP3 kinases inhibitors, DAB (5 μM) and GSK’872 (5 μM). […] Cell lysates were analyzed by […]
HeLa, L929, and MEF cells were pretreated with HS-1371 (5 μM) for 2 h, and treated with TNF (30 ng/mL) for indicated time points. Cell lysates were analyzed by immunoblotting. […]
(a) RAW264.7 cells were treated with LPS (1 μg/mL) for indicated time points and cell lysates were analyzed by immunoblotting. […]
Background: Immunoblotting shows a protein as a band on a membrane.

The next assay has as its target RIP3 (Homo sapiens, UniProt Q9Y572). In words: Mechanism of action / ATP competition study with RIP3 enzyme. The class given is biochemical. The conditions noted are these: 20 min pre-incubation; Michaelis-Menten and Lineweaver-Burk plots. The protocol:
To understand the interaction modes of these inhibitors within RIP3, the mechanisms of action studies including ATP competition were further performed with HS-1371. A 20 min pre-incubation of the compound and RIP3 enzyme was performed to ensure HS-1371 binding to the enzyme and equilibration. The reactions were monitored every 5–15 min to obtain progress curves with a time course. At each time point, radioisotope signal (^33P) was converted into M phosphate transferred to substrate and was plotted against time. The slopes (or velocity; M/min) were then plotted against ATP concentrations to generate a Michaelis–Menten plot and a subsequent Lineweaver–Burk plot (double-reciprocal plot) using GraphPad Prism software (GraphPad Software Inc., San Diego, CA). The results were further analyzed with global fit using GraFit software.

The next assay deals with L929. In words: TNF plus zVAD-induced necroptosis in L929 cells. The class given is cell-based, mouse. The protocol:
Cells were pretreated with DAB or HS-1371 for 2 h and then treated with TSZ (6 h for immunoblotting, 24 h for cell death assay). Cell lysates were analyzed by immunoblotting (left bottom panel), and cell viability was analyzed by MTT assay (right panel). The results are presented as means ± SEM. *P < 0.05, **P < 0.01, ***P < 0.001. c, d HS-1371 had the same effect on mouse cells. L929 (mouse sarcoma, c) and MEF (mouse embryonic fibroblast, d) cells were pretreated with inhibitors and then necroptosis was induced by TNF. Cell lysates were analyzed by immunoblotting (upper panel), and cell viability was analyzed by MTT assay (bottom panel). The results are presented as means ± SEM. *P < 0.05, **P < 0.01, ***P < 0.001

RIP3, sequence (Q9Y572 whole entry): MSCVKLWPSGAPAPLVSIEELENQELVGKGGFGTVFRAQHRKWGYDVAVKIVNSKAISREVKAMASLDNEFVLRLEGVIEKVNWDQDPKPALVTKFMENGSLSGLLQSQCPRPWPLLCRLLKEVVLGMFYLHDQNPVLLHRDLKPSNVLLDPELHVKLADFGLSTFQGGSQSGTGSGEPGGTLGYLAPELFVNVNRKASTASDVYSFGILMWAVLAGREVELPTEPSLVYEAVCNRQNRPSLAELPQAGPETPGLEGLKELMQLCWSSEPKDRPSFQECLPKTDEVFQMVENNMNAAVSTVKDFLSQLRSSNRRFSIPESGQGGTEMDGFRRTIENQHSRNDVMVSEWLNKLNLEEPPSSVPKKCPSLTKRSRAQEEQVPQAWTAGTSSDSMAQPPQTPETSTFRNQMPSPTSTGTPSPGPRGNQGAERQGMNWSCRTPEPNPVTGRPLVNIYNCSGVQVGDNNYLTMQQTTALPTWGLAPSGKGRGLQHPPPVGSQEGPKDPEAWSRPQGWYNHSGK

For `Cc1ccc(Oc2ccnc3cc(-c4cnn(C5CCNCC5)c4)ccc23)cc1` [HS-1371, 7-(1-(Piperidin-4-yl)-1H-pyrazol-4-yl)-4-(p-tolyloxy)quinoline], in the assay on p-MLKL, the “p-MLKL detection / translocation after TSZ” value is “no detection of p-MLKL”. For the same compound, the “TNF-induced NF-κB signaling” value with NF-κB pathway (HT-29, HeLa(RIP3), L929, MEF, 5 μM pretreated 2 h, TNF 30 ng/mL) is given as “did not affect”. In addition, the “LPS-induced induction of the NF-κB pathway” value in the assay with NF-κB pathway (data not shown) is reported as “not altered”. Also, on RIP3, the “mechanism of action upon binding to RIP3” value is “time-independent and ATP-competitive”. For the same compound, the “TNF plus zVAD-induced necroptosis” value with L929 is on record as “prevented”.
